The text below walks through data of PMC12040169 (PLOS Biology, 2025).

As usually defined, the viability is a read-out of living cells in per cent, often relative to untreated cells.

The nature of this data set: in vitro. As to conditions: human, hela cells, % viability.

Take `Cc1ccc(C2(C(=O)NCCn3ccnc3C)CCOCC2)cc1` [CBK281858]: the viability at 28.5 h, 10 µM was found to be 95%.
As for `Cc1noc(C)c1CC(=O)NCC(C)(C)N1CCCCC1` [CBK281863], the viability at 28.5 h, 10 µM was 90.3%.
`CN(C)Cc1ccc(C(=O)NCC(C)(C)N2CCCCC2)cc1` [CBK281865]: the viability at 28.5 h, 10 µM was determined as 104%.
For the compound `Cc1nc(C)c(C(=O)NCC(C)(C)N2CCCCC2)o1` [CBK281866], the viability at 28.5 h, 10 µM was found to be 94.2%.
As for `CCN(C(=O)c1cc2ccc(N(C)C)cc2[nH]1)C1CCN(C)CC1` [CBK281867], the viability at 28.5 h, 10 µM amounted to 79.8%.
Take `Cc1nccn1CCC1CCN(C(=O)c2cn3ccccc3n2)CC1` [CBK281868]: the viability at 28.5 h, 10 µM is 91.2%.
Turning to `O=C(c1cc2c([nH]1)CCCC2)N1CCC(CCN2CCOCC2)CC1` [CBK281869], the viability at 28.5 h, 10 µM was found to be 88.9%.
For the compound `CCN(C(=O)Cn1c(=O)cc(C)c2ccccc21)C1CCN(C)CC1` [CBK281871], the viability at 28.5 h, 10 µM is 86.8%.
On to `O=C(CCCn1ccnc1)N1CCc2[nH]c3ccccc3c2C1` [CBK281872], for which the viability at 28.5 h, 10 µM came out at 101%.
Take `Cn1c(CCC(=O)NCC(C)(C)N2CCCCC2)nc2ccccc21` [CBK281877]: the viability at 28.5 h, 10 µM was 92.9%.
For `CC(C)(CNC(=O)Cn1cnc2ccccc21)N1CCCCC1` [CBK281879], the viability at 28.5 h, 10 µM came to 95.8%.
For `CCn1c(C)nc2cc(NC(=O)c3ccc(CN(C)C)cc3)ccc21` [CBK281880], the viability at 28.5 h, 10 µM was 106%.
With `CCC(c1ccc(F)cc1)n1cncc1-c1cnn(C)c1` (stereo not shown) [CBK281883], the viability at 28.5 h, 10 µM amounted to 95.7%.
Consider `CC(NC(=O)Cn1cnc2ccccc21)c1ccccn1` (stereo not shown) [CBK281884], for which the viability at 28.5 h, 10 µM is 96.7%.
Under `Cc1nc2ccc(C(=O)NC(C)c3ccccn3)cc2s1` (stereo not shown) [CBK281890] stands 94.6%; under `O=C1CC[C@@H](C(=O)N2CCc3nc(-c4ccccc4F)sc3C2)N1` [CBK281891], 82.1%; under `Cn1c(CN2CCN(C3CCCCC3)C(=O)C2)nc2ccccc21` [CBK281893], 90.9%.
With `Cc1cc(C(=O)NCCn2ccnc2C)nc2ccccc12` [CBK281894] the figure was 101%; with `Cc1cc(C(=O)NCCn2ccnc2C)c2ccccc2n1` [CBK281895], 100%.
Consider `Cn1nccc1CN1CCCC(COc2ccc(F)cc2)C1` (stereo not shown) [CBK281899], for which the viability at 28.5 h, 10 µM turned out to be 95.2%.
Regarding `CN(CCN1CCCCC1)C(=O)Cn1ccnc1-c1ccccc1` [CBK281900], the viability at 28.5 h, 10 µM came out at 91.3%.
On to `Cc1ncc(CN2CCCC(Cc3nc4ccccc4[nH]3)C2)s1` (stereo not shown) [CBK281902], for which the viability at 28.5 h, 10 µM amounted to 99.7%.
With `Cc1ccc(C2(C(=O)NC(C)c3ccccn3)CCOCC2)cc1` (stereo not shown) [CBK281903], the viability at 28.5 h, 10 µM stood at 90.5%.
Under `CN(CCN1CCCCC1)C(=O)c1c2c(nn1C)CCCC2` [CBK281905] stands 102%; under `Cc1oc2c(c1C(=O)N(C)CCN1CCCCC1)CCCC2` [CBK281907], 90.8%.
In the case of `Cc1cc(CN(C)Cc2cnn(-c3ccc(Cl)cc3)c2)n[nH]1` [CBK281912], the viability at 28.5 h, 10 µM stood at 99.3%.
As for `Cc1cc(CN(C)Cc2c(C)nc3ccc(Cl)cn23)n[nH]1` [CBK281913], the viability at 28.5 h, 10 µM was 108%.
As to `O=C(c1cc[nH]n1)N1CCc2nc(-c3cccc(F)c3)sc2C1` [CBK281915], the viability at 28.5 h, 10 µM came to 84.9%.
For the compound `Cc1nc(C(F)(F)F)ccc1C(=O)N(C)CCN1CCCCC1` [CBK281917], the viability at 28.5 h, 10 µM is 87.3%.
For the compound `CN(C)CC(=O)N1CCc2nc(-c3ccccc3F)sc2C1` [CBK281918], the viability at 28.5 h, 10 µM came out at 85.6%.
Take `Cc1nc2ccc(C(=O)N(C)CCN3CCCCC3)cc2s1` [CBK281919]: the viability at 28.5 h, 10 µM amounted to 93.4%.
Regarding `CCN(C(=O)c1cc(C)nc2ccccc12)C1CCN(C)CC1` [CBK281920], the viability at 28.5 h, 10 µM was 106%.
As to `CC(C)c1nnc(CCC(=O)N2CCC(c3ccccc3)C2)o1` (stereo not shown) [CBK281925], the viability at 28.5 h, 10 µM was 89.3%.
Consider `Cc1ccc2cc(CNc3ccc4[nH]ncc4c3)c(=O)[nH]c2c1` [CBK281935], for which the viability at 28.5 h, 10 µM came to 86.1%.
For the compound `O=C(NC1CCCC1)c1ncoc1-c1ccccc1` [CBK281937], the viability at 28.5 h, 10 µM is 100%.
Turning to `CCc1ccc2nc3c(cc2c1)CNCCO3` [CBK281940], the viability at 28.5 h, 10 µM came out at 91.6%.
For the compound `O=C(c1ccccc1F)N1CCC(O)(c2ccc(F)cc2)CC1` [CBK281943], the viability at 28.5 h, 10 µM worked out at 80.9%.
Regarding `O=C(Nc1ccc(F)cc1)N1C2CCC1CC(O)(c1cccnc1)C2` (stereo not shown) [CBK281946], the viability at 28.5 h, 10 µM was 89.9%.
Regarding `CN(C)Cc1ccc(C(=O)N2CCCC2(C)C(=O)N(C)C)cc1` (stereo not shown) [CBK281955], the viability at 28.5 h, 10 µM came out at 90%.
As to `Cc1cc(C(=O)N(C)CC2(C)COC2)nc2ccccc12` [CBK281956], the viability at 28.5 h, 10 µM amounted to 90.2%.
As to `CC1CCN(S(=O)(=O)N2CCCC2c2cccc(F)c2)CC1` (stereo not shown) [CBK281957], the viability at 28.5 h, 10 µM was found to be 93.2%.
For `Cc1c(CN2CCCC2(C)C(=O)NC2CCCC2)cnn1C` (stereo not shown) [CBK281960], the viability at 28.5 h, 10 µM was 108%.
As to `O=C1CN(Cc2ccc3ccccc3n2)CCN1C1CCCC1` [CBK281961], the viability at 28.5 h, 10 µM came to 88.6%.
As for `Cc1nccn1CCNC(=O)CCc1cn(C)c2ccccc12` [CBK281962], the viability at 28.5 h, 10 µM stood at 86.1%.
Regarding `CN(CC1(C)COC1)C(=O)Cc1cccc2cccnc12` [CBK281963], the viability at 28.5 h, 10 µM is 91.7%.
Regarding `Cc1ccn2c(CN3CCCC(Cn4ccnc4C)C3)c(C)nc2c1` (stereo not shown) [CBK281964], the viability at 28.5 h, 10 µM stood at 86.6%.
As to `Cc1nccn1CC1CCCN(Cc2ccnc3ccccc23)C1` (stereo not shown) [CBK281966], the viability at 28.5 h, 10 µM came out at 84.7%.
With `Cc1cccc(CCNC(=O)C2CN(C(=O)C3CCN(C)CC3)C2)c1` [CBK281967] the figure was 98.4%; with `Cc1nn(C)cc1CN1CCC(C(=O)NCCc2ccccc2)C1` (stereo not shown) [CBK281968], 111%.
For the compound `CN(C)C(=O)C1CN(C(=O)C(C)(C)c2ccccc2F)C1` [CBK281970], the viability at 28.5 h, 10 µM amounted to 113%.
For the compound `Cc1nn(C)cc1-c1cncn1CCCn1ccnc1C(C)C` [CBK281972], the viability at 28.5 h, 10 µM worked out at 81.6%.
For the compound `Cc1nccn1CCC1CCN(C(=O)CC2CCCCO2)CC1` (stereo not shown) [CBK281974], the viability at 28.5 h, 10 µM was found to be 84.3%.
With `Cc1nccn1CCNC(=O)CCc1nc2ccccc2n1C` [CBK281978], the viability at 28.5 h, 10 µM came out at 95.3%.
With `Cc1nccn1CCNC(=O)c1ccccc1Cn1cccn1` [CBK281979] the figure was 101%.
As to `CC(C)(C)NC(=O)Cn1cncc1-c1ccc2c(c1)CC(C)(C)O2` [CBK281980], the viability at 28.5 h, 10 µM came out at 113%.
Take `CCN1CCC(CC(=O)NCCn2ccnc2C)CC1` [CBK281984]: the viability at 28.5 h, 10 µM was 108%.
Turning to `Cc1nn(C)cc1-c1cncn1Cc1ccccc1CN(C)C` [CBK281985], the viability at 28.5 h, 10 µM was found to be 102%.
Regarding `O=C(CCCn1ccnc1)Nc1ccc(OC2CCCC2)cc1` [CBK281986], the viability at 28.5 h, 10 µM came out at 92.3%.
`Cc1nn(C)cc1-c1cncn1C(CCN(C)C)c1ccccc1` (stereo not shown) [CBK281987]: the viability at 28.5 h, 10 µM was determined as 92.3%.
For `Cc1nccn1CCC1CCN(C(=O)CCCn2ccnc2)CC1` [CBK281988], the viability at 28.5 h, 10 µM turned out to be 95.3%.
For `Cc1cc(CN(C)Cc2ccc(-n3ccnc3C)cc2)n[nH]1` [CBK281989], the viability at 28.5 h, 10 µM stood at 97.6%.
Turning to `Cc1nccn1CCN(C)C(=O)c1ccc2c(c1)ncn2C` [CBK281993], the viability at 28.5 h, 10 µM was found to be 98.8%.
Take `CCN(C(=O)CCc1nc2ccccc2n1C)C1CCN(C)CC1` [CBK281994]: the viability at 28.5 h, 10 µM came to 89.9%.
`COc1ccccc1C1CCCN1Cc1c(C)nc2ccccn12` (stereo not shown) [CBK281995]: the viability at 28.5 h, 10 µM was determined as 91.9%.
For the compound `Cc1cnn(CC(=O)N2CCCC(COc3ccccc3F)C2)c1` (stereo not shown) [CBK281999], the viability at 28.5 h, 10 µM turned out to be 102%.
For `Cc1nn(C)c(C)c1CN(C)C(=O)CCC(C)N1CCCC1` (stereo not shown) [CBK282001], the viability at 28.5 h, 10 µM is 101%.
Under `CN(C)CC1CCCN(C(=O)C2C3CCCCC32)C1` (stereo not shown) [CBK282002] stands 82.3%; under `Cc1cc(N(C)C)cc(C2CCCN(C(=O)c3cccc(F)c3)C2)n1` (stereo not shown) [CBK282003], 95.1%.
With `Cc1cc(S(=O)(=O)NCC(C)n2nc(C)c(C)c2C)ccc1F` (stereo not shown) [CBK282010] the figure was 87.4%; with `O=C(c1ccccc1F)N1CCN(C(=O)[C@@H]2C[C@@H]3C=C[C@H]2C3)CC1` [CBK282011], 89.1%.
Take `CSc1nnc(C2CCCN2C(=O)[C@@H]2C[C@@H]3C=C[C@H]2C3)n1C` (stereo partly shown) [CBK282012]: the viability at 28.5 h, 10 µM turned out to be 79.8%.
In the case of `CN1CCN(C(=O)c2cccc(-n3cccn3)c2)C(c2ccccc2)C1` (stereo not shown) [CBK282013], the viability at 28.5 h, 10 µM was found to be 90.5%.
Under `CN1CCN(C(=O)CCC2CCCO2)C(c2ccccc2)C1` (stereo not shown) [CBK282015] stands 101%; under `CC(Cn1cc(Cl)cn1)C(=O)N1CCN(C)CC1c1ccccc1` (stereo not shown) [CBK282016], 111%.
On to `CCn1nc(C(C)C)cc1C(=O)N1CCN(C)CC1c1ccccc1` (stereo not shown) [CBK282025], for which the viability at 28.5 h, 10 µM is 100%.
Consider `CC(C(=O)N1CCCC(COc2ccc(F)cc2)C1)n1ccnc1` (stereo not shown) [CBK282027], for which the viability at 28.5 h, 10 µM worked out at 85.8%.
With `CCc1nccn1CCC(=O)NC(c1ccc(C)cc1)c1cccnc1` (stereo not shown) [CBK282032] the figure was 103%.
With `O=C(CCCc1ccccn1)N(Cc1ccccn1)C1CCCC1` [CBK282033] the figure was 99.9%; with `COC(C)CN(C)C(=O)c1cc2cc(C)ccc2nc1C` (stereo not shown) [CBK282036], 86.5%; with `COc1ccc2oc(C(=O)N(C)CC(C)OC)c(C)c2c1` (stereo not shown) [CBK282037], 94.4%.
With `Cc1c(CN2CCC(N(C)CCN(C)C)CC2)oc2ccccc12` [CBK282038] the figure was 86.1%.
For `CCn1cc(CN2CCN(C(=O)c3csc(C(C)C)c3)CC2)cn1` [CBK282044], the viability at 28.5 h, 10 µM was 88.1%.
As to `CCCc1cc(CNC(=O)CN2CCCC(C)C2)on1` (stereo not shown) [CBK282045], the viability at 28.5 h, 10 µM turned out to be 99.8%.
As for `CCCc1cc(CNC(=O)c2cc(C3CC3)nn2C)on1` [CBK282048], the viability at 28.5 h, 10 µM came to 102%.
With `Cc1ccc(CCNC(=O)c2snnc2C)cc1C` [CBK282051] the figure was 89.6%.
